{"source": "ChEMBL document CHEMBL1201862", "about": "“PubChem BioAssay data set” (2004)", "assay_in_all_cases": "NCI-60 cell line screen, 48 h", "key": {"[1]": {"test_system": "T47D"}, "[2]": {"test_system": "SF-295"}, "[3]": {"test_system": "A498"}, "[4]": {"test_system": "SR"}, "[5]": {"test_system": "EKVX"}, "[6]": {"test_system": "OVCAR-8"}, "[7]": {"test_system": "OVCAR-5"}, "[8]": {"test_system": "U-251"}, "[9]": {"test_system": "UO-31"}, "[10]": {"test_system": "BT-549"}, "[11]": {"test_system": "SF-268"}, "[12]": {"test_system": "K562"}, "[13]": {"test_system": "MDA-MB-435"}, "[14]": {"test_system": "HL-60"}, "[15]": {"test_system": "NCI/ADR-RES"}, "[16]": {"test_system": "SNB-19"}, "[17]": {"test_system": "HT-29"}, "[18]": {"test_system": "HOP-92"}, "[19]": {"test_system": "RPMI-8226"}, "[20]": {"test_system": "RXF 393"}, "[21]": {"test_system": "SW-620"}, "[22]": {"test_system": "LOX IMVI"}, "[23]": {"test_system": "MOLT-4"}, "[24]": {"test_system": "Hs-578T"}, "[25]": {"test_system": "SN12C"}, "[26]": {"test_system": "MDA-MB-231"}, "[27]": {"test_system": "M14"}, "[28]": {"test_system": "IGROV-1"}, "[29]": {"test_system": "A549"}, "[30]": {"test_system": "CCRF-CEM"}, "[31]": {"test_system": "PC-3"}, "[32]": {"test_system": "SK-MEL-5"}, "[33]": {"test_system": "HCT-15"}, "[34]": {"test_system": "TK-10"}, "[35]": {"test_system": "SF-539"}, "[36]": {"test_system": "UACC-257"}, "[37]": {"test_system": "786-0"}, "[38]": {"test_system": "MDA-N"}, "[39]": {"test_system": "UACC-62"}, "[40]": {"test_system": "OVCAR-3"}, "[41]": {"test_system": "ACHN"}, "[42]": {"test_system": "DU-145"}, "[43]": {"test_system": "SNB-75"}, "[44]": {"test_system": "NCI-H460"}, "[45]": {"test_system": "NCI-H522"}, "[46]": {"test_system": "SK-MEL-28"}, "[47]": {"test_system": "CAKI-1"}, "[48]": {"test_system": "NCI-H23"}, "[49]": {"test_system": "COLO 205"}, "[50]": {"test_system": "OVCAR-4"}, "[51]": {"test_system": "HCC 2998"}, "[52]": {"test_system": "HCT-116"}, "[53]": {"test_system": "HOP-62"}, "[54]": {"test_system": "SK-MEL-2"}, "[55]": {"test_system": "SK-OV-3"}, "[56]": {"test_system": "KM12"}, "[57]": {"test_system": "MCF7"}, "[58]": {"test_system": "Malme-3M"}, "[59]": {"test_system": "NCI-H226"}, "[60]": {"test_system": "XF498"}, "[61]": {"test_system": "KM-20L2"}}, "note": "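Tested at 5 concentrations; 48 h exposure; 96-well plates; endpoints linearly interpolated, else capped at highest concentration. GI50: concentration for 50% inhibition of growth.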 Calls of active or inactive are those of the source. Rule as the data show it: active = GI50 up to about 1.1 µM and inactive = higher.", "data": [{"compound": "Cc1cc(C)nc(SC(C)C(=O)N/N=C/c2ccc(OCc3ccccc3)cc2)n1", "note": "(stereo not drawn)", "values": [{"measurement": "GI50", "setting": "[1]", "value": "9.53 µM (inactive)"}, {"measurement": "GI50", "setting": "[2]", "value": "19.1 µM (inactive)"}, {"measurement": "GI50", "setting": "[3]", "value": "31.8 µM (inactive)"}, {"measurement": "GI50", "setting": "[4]", "value": "7.89 µM (inactive)"}, {"measurement": "GI50", "setting": "[5]", "value": "25.2 µM (inactive)"}, {"measurement": "GI50", "setting": "[6]", "value": "30.4 µM (inactive)"}, {"measurement": "GI50", "setting": "[7]", "value": "78.9 µM (inactive)"}, {"measurement": "GI50", "setting": "[8]", "value": "17 µM (inactive)"}, {"measurement": "GI50", "setting": "[9]", "value": "32.1 µM (inactive)"}, {"measurement": "GI50", "setting": "[10]", "value": "26.5 µM (inactive)"}, {"measurement": "GI50", "setting": "[11]", "value": "40.6 µM (inactive)"}, {"measurement": "GI50", "setting": "[12]", "value": "6.11 µM (inactive)"}, {"measurement": "GI50", "setting": "[13]", "value": "26.7 µM (inactive)"}, {"measurement": "GI50", "setting": "[14]", "value": "14.5 µM (inactive)"}, {"measurement": "GI50", "setting": "[15]", "value": "21.8 µM (inactive)"}, {"measurement": "GI50", "setting": "[16]", "value": "48.5 µM (inactive)"}, {"measurement": "GI50", "setting": "[17]", "value": "14.5 µM (inactive)"}, {"measurement": "GI50", "setting": "[18]", "value": "28.6 µM (inactive)"}, {"measurement": "GI50", "setting": "[19]", "value": "13.3 µM (inactive)"}, {"measurement": "GI50", "setting": "[20]", "value": "19.1 µM (inactive)"}, {"measurement": "GI50", "setting": "[21]", "value": "39.5 µM (inactive)"}, {"measurement": "GI50", "setting": "[22]", "value": "22.1 µM (inactive)"}, {"measurement": "GI50", "setting": "[23]", "value": "17.1 µM (inactive)"}, {"measurement": "GI50", "setting": "[24]", "value": "52 µM (inactive)"}, {"measurement": "GI50", "setting": "[25]", "value": "31.3 µM (inactive)"}, {"measurement": "GI50", "setting": "[26]", "value": "19.7 µM (inactive)"}, {"measurement": "GI50", "setting": "[27]", "value": "36.8 µM (inactive)"}, {"measurement": "GI50", "setting": "[28]", "value": "54.8 µM (inactive)"}, {"measurement": "GI50", "setting": "[29]", "value": "31.3 µM (inactive)"}, {"measurement": "GI50", "setting": "[30]", "value": "19.1 µM (inactive)"}, {"measurement": "GI50", "setting": "[31]", "value": "22.4 µM (inactive)"}, {"measurement": "GI50", "setting": "[32]", "value": "7.03 µM (inactive)"}, {"measurement": "GI50", "setting": "[33]", "value": 26.4, "unit": "µM"}, {"measurement": "GI50", "setting": "[34]", "value": "27.2 µM (inactive)"}, {"measurement": "GI50", "setting": "[35]", "value": "50.8 µM (inactive)"}, {"measurement": "GI50", "setting": "[36]", "value": "7.41 µM (inactive)"}, {"measurement": "GI50", "setting": "[37]", "value": "36.6 µM (inactive)"}, {"measurement": "GI50", "setting": "[38]", "value": "22.8 µM (inactive)"}, {"measurement": "GI50", "setting": "[39]", "value": "14.5 µM (inactive)"}, {"measurement": "GI50", "setting": "[40]", "value": "19.7 µM (inactive)"}, {"measurement": "GI50", "setting": "[41]", "value": "25.2 µM (inactive)"}, {"measurement": "GI50", "setting": "[42]", "value": "37.7 µM (inactive)"}, {"measurement": "GI50", "setting": "[43]", "value": "33 µM (inactive)"}, {"measurement": "GI50", "setting": "[44]", "value": "17.1 µM (inactive)"}, {"measurement": "GI50", "setting": "[45]", "value": "15.3 µM (inactive)"}, {"measurement": "GI50", "setting": "[46]", "value": "53.2 µM (inactive)"}, {"measurement": "GI50", "setting": "[47]", "value": "20.5 µM (inactive)"}, {"measurement": "GI50", "setting": "[48]", "value": "18 µM (inactive)"}, {"measurement": "GI50", "setting": "[49]", "value": "20.8 µM (inactive)"}, {"measurement": "GI50", "setting": "[50]", "value": "15.7 µM (inactive)"}, {"measurement": "GI50", "setting": "[51]", "value": "28.1 µM (inactive)"}, {"measurement": "GI50", "setting": "[52]", "value": "23.9 µM (inactive)"}, {"measurement": "GI50", "setting": "[53]", "value": "36 µM (inactive)"}, {"measurement": "GI50", "setting": "[54]", "value": "21.6 µM (inactive)"}, {"measurement": "GI50", "setting": "[55]", "value": "41.5 µM (inactive)"}, {"measurement": "GI50", "setting": "[56]", "value": "> 100 µM (inactive)"}, {"measurement": "GI50", "setting": "[57]", "value": "21 µM (inactive)"}, {"measurement": "GI50", "setting": "[58]", "value": "22.3 µM (inactive)"}, {"measurement": "GI50", "setting": "[59]", "value": "18.9 µM (inactive)"}]}, {"compound": "Nc1ccccc1Nc1ccccc1C(=O)[O-].Nc1ccccc1Nc1ccccc1C(=O)[O-].[Zn+2]", "values": [{"measurement": "GI50", "setting": "[2]", "value": "32.8 µM (inactive)"}, {"measurement": "GI50", "setting": "[3]", "value": "> 100 µM (inactive)"}, {"measurement": "GI50", "setting": "[5]", "value": "> 100 µM (inactive)"}, {"measurement": "GI50", "setting": "[6]", "value": "> 100 µM (inactive)"}, {"measurement": "GI50", "setting": "[7]", "value": "> 100 µM (inactive)"}, {"measurement": "GI50", "setting": "[8]", "value": "> 100 µM (inactive)"}, {"measurement": "GI50", "setting": "[9]", "value": "> 100 µM (inactive)"}, {"measurement": "GI50", "setting": "[11]", "value": "45.6 µM (inactive)"}, {"measurement": "GI50", "setting": "[12]", "value": "62.4 µM (inactive)"}, {"measurement": "GI50", "setting": "[16]", "value": "> 100 µM (inactive)"}, {"measurement": "GI50", "setting": "[17]", "value": "> 100 µM (inactive)"}, {"measurement": "GI50", "setting": "[19]", "value": "> 100 µM (inactive)"}, {"measurement": "GI50", "setting": "[21]", "value": "> 100 µM (inactive)"}, {"measurement": "GI50", "setting": "[23]", "value": "> 100 µM (inactive)"}, {"measurement": "GI50", "setting": "[25]", "value": "> 100 µM (inactive)"}, {"measurement": "GI50", "setting": "[27]", "value": "51.4 µM (inactive)"}, {"measurement": "GI50", "setting": "[28]", "value": "40.6 µM (inactive)"}, {"measurement": "GI50", "setting": "[29]", "value": "> 100 µM (inactive)"}, {"measurement": "GI50", "setting": "[30]", "value": "33 µM (inactive)"}, {"measurement": "GI50", "setting": "[32]", "value": "91.4 µM (inactive)"}, {"measurement": "GI50", "setting": "[33]", "value": "> 100", "unit": "µM"}, {"measurement": "GI50", "setting": "[60]", "value": "28.1 µM (inactive)"}, {"measurement": "GI50", "setting": "[34]", "value": "> 100 µM (inactive)"}, {"measurement": "GI50", "setting": "[35]", "value": "> 100 µM (inactive)"}, {"measurement": "GI50", "setting": "[36]", "value": "33.7 µM (inactive)"}, {"measurement": "GI50", "setting": "[37]", "value": "> 100 µM (inactive)"}, {"measurement": "GI50", "setting": "[39]", "value": "25.1 µM (inactive)"}, {"measurement": "GI50", "setting": "[40]", "value": "23.4 µM (inactive)"}, {"measurement": "GI50", "setting": "[41]", "value": "> 100 µM (inactive)"}, {"measurement": "GI50", "setting": "[43]", "value": "17.7 µM (inactive)"}, {"measurement": "GI50", "setting": "[44]", "value": "> 100 µM (inactive)"}, {"measurement": "GI50", "setting": "[45]", "value": "19.7 µM (inactive)"}, {"measurement": "GI50", "setting": "[46]", "value": "> 100 µM (inactive)"}, {"measurement": "GI50", "setting": "[47]", "value": "> 100 µM (inactive)"}, {"measurement": "GI50", "setting": "[48]", "value": "> 100 µM (inactive)"}, {"measurement": "GI50", "setting": "[49]", "value": "> 100 µM (inactive)"}, {"measurement": "GI50", "setting": "[51]", "value": "> 100 µM (inactive)"}, {"measurement": "GI50", "setting": "[52]", "value": "> 100 µM (inactive)"}, {"measurement": "GI50", "setting": "[53]", "value": "> 100 µM (inactive)"}, {"measurement": "GI50", "setting": "[54]", "value": "19.8 µM (inactive)"}, {"measurement": "GI50", "setting": "[55]", "value": "> 100 µM (inactive)"}, {"measurement": "GI50", "setting": "[56]", "value": "> 100 µM (inactive)"}, {"measurement": "GI50", "setting": "[61]", "value": "> 100 µM (inactive)"}, {"measurement": "GI50", "setting": "[58]", "value": "> 100 µM (inactive)"}]}]}
